# Measured values published in publication PMC10470178, “Long-acting lenacapavir protects macaques against intravenous challenge with simian-tropic HIV” (eBioMedicine, 2023).
# System: stHIV-A19
# Assay: Multi-round viral replication assay in SupT1-CCR5 cells, stHIV-A19
# Assay type: cell-based, simian-tropic HIV-1
# Details: Human immunodeficiency virus 1, 168 h, supernatant vRNA 7 days post-infection, mean ± SD of three independent experiments, read-out: mean EC50 against stHIV-A19
# Experimental: Infectious stocks of stHIV-A19,[23] HIV-1 NL4-3, and SIVmac239 were produced in HEK-293T (RRID: CVCL_1926) cells transfected with full-length viral genome plasmids using the TransIT HEK-293 transfection reagent (Mirus Bio) according to the manufacturer’s instructions. Virus stock infectious titres were determined on TZM-bl reporter cells (RRID: CVCL_B478) as previously described.[26] For experiments using SupT1-CCR5 target cells (RRID: CVCL_X633),[27] cultures were maintained in RPMI 1640 medium supplemented with 10% foetal bovine serum (FBS), 2 mM glutamine, 100 U/ml penicillin, and 100 μg/ml streptomycin. […] Cells were then washed three times to remove input virus, counted, and cultured in triplicate in growth media containing serial threefold dilutions of LEN or no LEN (control). […] Culture supernatants were collected 7 days post-inoculation, clarified by centrifugation, and stored at −80 °C for later quantification of vRNA by quantitative reverse transcription polymerase chain reaction (qRT-PCR). […] The stHIV-A19 stock was quantified with a SYBR Green-based qPCR-based product-enhanced RT (PERT) assay using a purified reverse transcriptase (RT) protein standard, as previously described.[28] […] After 7 days, the virus in culture supernatants was quantified using the PERT assay. […]
smiles,measurement,value
"CC(C)(C#Cc1ccc(-c2ccc(Cl)c3c(NS(C)(=O)=O)nn(CC(F)(F)F)c23)c([C@H](Cc2cc(F)cc(F)c2)NC(=O)Cn2nc(C(F)(F)F)c3c2C(F)(F)[C@@H]2C[C@H]32)n1)S(C)(=O)=O [LEN, Lenacapavir]",EC50,0.091 nM
